Results reported in article PMC10845951, “Characterization of a selective, iron-chelating antifungal compound that disrupts fungal metabolism and synergizes with fluconazole” (Microbiology Spectrum, 2024).

System: C. glabrata gene expression
Experiment: RNA sequencing (gene regulation)
Type: cell-based, Candida glabrata
Conditions: for Log2 Fold-Change: vs DMSO; for Regulation Status: 26CvsDMSO
Experimental: Cells from overnight precultures in YPD medium were reinoculated in fresh YNB −iron medium (see “Culture maintenance” for contents) without iron and grown until OD600 of 0.4. […] Cells were collected from three independent experiments, snap frozen, and stored at −80°C. Total RNA purification was performed as previously described using the RNeasy Mini Kit (74104, Qiagen), and gDNA removal was made using the RNase-Free DNase Set kit (79254, Qiagen). RNA quantification and quality control were done with a Tape Station 4150 (Agilent) ([59]).
Library preparation and sequencing were performed at GenomEast (IGBMC, Illkirch, France). One DMSO 0.05% sample was excluded from the analysis due to insufficient quality. The library was sequenced on Illumina Hiseq 4000 sequencer as single-read 50-base reads following Illumina’s instructions. Reads were pre-processed in order to remove adapter, polyA, and low-quality sequences (Phred quality score below 20). Reads shorter than 40 bases were discarded from further analysis. These pre-processing steps were performed using cutadapt version 1.10 ([60]). Image analysis and base calling were performed using RTA 2.7.7 and bcl2fastq2.17.1.14. Adapter dimer reads were removed using DimerRemover (https://sourceforge.net/projects/dimerremover/). The quality of the RNAseq reads was examined using FastQC 0.11.2 (http://www.bioinformatics.babraham.ac.uk/projects/fastqc/) and FastQScreen 0.5.1 (https://www.bioinformatics.babraham.ac.uk/projects/fastq_screen/). Reads were mapped onto the ASM254v2 assembly of Candida glabrata genome using STAR version 2.5.3a ([61]). Gene expression quantification was performed from uniquely aligned reads using htseq-count version 0.6.1p1 ([62]), with annotations from Ensembl fungi version 50 and union mode. Only non-ambiguously assigned reads have been retained for further analyses. Read counts were normalized across samples with the median-of-ratios method ([63]). Comparisons were implemented in the Bioconductor package DESeq2 version 1.16.1 using the test for differential expression ([64]). Genes with no P-value corresponded to genes with high Cook’s distance that were filtered out. P-values were adjusted for multiple testing using the Benjamini and Hochberg method ([65]). Genes with no adjusted P-value correspond to genes filtered out in the independent filtering step in order to remove reads from genes that have no or little chance of showing evidence of significant differential expression.

**Q.** For `c1ccc(-c2cccc(-c3ccccn3)n2)nc1` [2,2′:6′,2′′-terpyridine], which “Log2 Fold-Change” value (TSA1 CAGL0K06259g) is on record?
**A.** 1.052

**Q.** And the “Log2 Fold-Change” value (ZPR1 CAGL0K00759g)?
**A.** 0.6092

**Q.** What about the “Regulation Status” value (gene CAGL0F07029g MET13) of the same compound?
**A.** Downregulated

**Q.** And the “Regulation Status” value (gene CAGL0F07513g)?
**A.** Downregulated

**Q.** And the “Regulation Status” value (gene CAGL0F08481g)?
**A.** Downregulated

**Q.** What about the “Regulation Status” value (gene CAGL0F08503g) of the same compound?
**A.** Downregulated

**Q.** And the “Regulation Status” value (gene CAGL0F09163g)?
**A.** Downregulated

**Q.** And the “Regulation Status” value (gene CAGL0G01903g MET1)?
**A.** Downregulated

**Q.** What about the “Regulation Status” value (gene CAGL0G02695g) of the same compound?
**A.** Downregulated

**Q.** And the “Regulation Status” value (gene CAGL0G03619g)?
**A.** Downregulated

**Q.** And the “Regulation Status” value (gene CAGL0G03861g)?
**A.** Downregulated

**Q.** What about the “Regulation Status” value (gene CAGL0G03883g) of the same compound?
**A.** Downregulated

**Q.** What about the “Regulation Status” value (gene CAGL0G03905g) of the same compound?
**A.** Downregulated

**Q.** What about the “Regulation Status” value (gene CAGL0G06050g) of the same compound?
**A.** Downregulated

**Q.** And the “Regulation Status” value (gene CAGL0G06402g)?
**A.** Downregulated

**Q.** What about the “Regulation Status” value (gene CAGL0G06600g) of the same compound?
**A.** Downregulated

**Q.** And the “Regulation Status” value (gene CAGL0G06732g)?
**A.** Downregulated

**Q.** What about the “Regulation Status” value (gene CAGL0G07711g) of the same compound?
**A.** Downregulated

**Q.** And the “Regulation Status” value (gene CAGL0G08712g KGD1)?
**A.** Downregulated

**Q.** And the “Regulation Status” value (gene CAGL0G09581g)?
**A.** Downregulated

**Q.** And the “Regulation Status” value (gene CAGL0G10131g)?
**A.** Downregulated

**Q.** And the “Regulation Status” value (gene CAGL0G10153g)?
**A.** Downregulated

**Q.** And the “Regulation Status” value (gene CAGL0H02365g)?
**A.** Downregulated

**Q.** And the “Regulation Status” value (gene CAGL0H02491g)?
**A.** Downregulated

**Q.** What about the “Regulation Status” value (gene CAGL0H02541g) of the same compound?
**A.** Downregulated

**Q.** And the “Regulation Status” value (gene CAGL0H03531g MNP1)?
**A.** Downregulated

**Q.** And the “Regulation Status” value (gene CAGL0H03795g LEU2)?
**A.** Downregulated

**Q.** And the “Regulation Status” value (gene CAGL0H03993g CIT1)?
**A.** Downregulated

**Q.** What about the “Regulation Status” value (gene CAGL0H05775g) of the same compound?
**A.** Downregulated

**Q.** And the “Regulation Status” value (gene CAGL0H05797g)?
**A.** Downregulated

**Q.** What about the “Regulation Status” value (gene CAGL0H06732g) of the same compound?
**A.** Downregulated

**Q.** And the “Regulation Status” value (gene CAGL0H06743g)?
**A.** Downregulated

**Q.** What about the “Regulation Status” value (gene CAGL0H07023g) of the same compound?
**A.** Downregulated

**Q.** And the “Regulation Status” value (gene CAGL0H08283g HSP10)?
**A.** Downregulated

**Q.** What about the “Regulation Status” value (gene CAGL0H09306g) of the same compound?
**A.** Downregulated

**Q.** What about the “Regulation Status” value (gene CAGL0H09328g) of the same compound?
**A.** Downregulated

**Q.** And the “Regulation Status” value (gene CAGL0H10076g)?
**A.** Downregulated

**Q.** And the “Regulation Status” value (gene CAGL0I00924g)?
**A.** Downregulated

**Q.** What about the “Regulation Status” value (gene CAGL0I01276g) of the same compound?
**A.** Downregulated

**Q.** And the “Regulation Status” value (gene CAGL0I01298g)?
**A.** Downregulated

**Q.** What about the “Regulation Status” value (gene CAGL0I01408g CYC1) of the same compound?
**A.** Downregulated

**Q.** And the “Regulation Status” value (gene CAGL0I01496g)?
**A.** Downregulated

**Q.** What about the “Regulation Status” value (gene CAGL0I01848g) of the same compound?
**A.** Downregulated

**Q.** What about the “Regulation Status” value (gene CAGL0I02728g) of the same compound?
**A.** Downregulated

**Q.** What about the “Regulation Status” value (gene CAGL0I03190g RIP1) of the same compound?
**A.** Downregulated

**Q.** What about the “Regulation Status” value (gene CAGL0I04180g AMT1) of the same compound?
**A.** Downregulated

**Q.** And the “Regulation Status” value (gene CAGL0I04994g MET6)?
**A.** Downregulated

**Q.** And the “Regulation Status” value (gene CAGL0I05280g)?
**A.** Downregulated

**Q.** What about the “Regulation Status” value (gene CAGL0I05698g) of the same compound?
**A.** Downregulated

**Q.** And the “Regulation Status” value (gene CAGL0I06270g)?
**A.** Downregulated

**Q.** What about the “Regulation Status” value (gene CAGL0I06644g) of the same compound?
**A.** Downregulated

**Q.** And the “Regulation Status” value (gene CAGL0I06831g)?
**A.** Downregulated

**Q.** What about the “Regulation Status” value (gene CAGL0I06985g) of the same compound?
**A.** Downregulated

**Q.** What about the “Regulation Status” value (gene CAGL0I07969g) of the same compound?
**A.** Downregulated

**Q.** And the “Regulation Status” value (gene CAGL0I08305g)?
**A.** Downregulated

**Q.** And the “Regulation Status” value (gene CAGL0I08503g)?
**A.** Downregulated

**Q.** What about the “Regulation Status” value (gene CAGL0I08767g) of the same compound?
**A.** Downregulated

**Q.** And the “Regulation Status” value (gene CAGL0I09009g)?
**A.** Downregulated

**Q.** What about the “Regulation Status” value (gene CAGL0I09262g) of the same compound?
**A.** Downregulated

**Q.** And the “Regulation Status” value (gene CAGL0I09812g)?
**A.** Downregulated

**Q.** And the “Regulation Status” value (gene CAGL0I10923g)?
**A.** Downregulated

**Q.** What about the “Regulation Status” value (gene CAGL0J00429g COX6) of the same compound?
**A.** Downregulated

**Q.** What about the “Regulation Status” value (gene CAGL0J00847g SDH1) of the same compound?
**A.** Downregulated

**Q.** What about the “Regulation Status” value (gene CAGL0J01463g) of the same compound?
**A.** Downregulated

**Q.** And the “Regulation Status” value (gene CAGL0J01699g)?
**A.** Downregulated

**Q.** And the “Regulation Status” value (gene CAGL0J02090g)?
**A.** Downregulated

**Q.** What about the “Regulation Status” value (gene CAGL0J03806g) of the same compound?
**A.** Downregulated

**Q.** And the “Regulation Status” value (gene CAGL0J04026g)?
**A.** Downregulated

**Q.** What about the “Regulation Status” value (gene CAGL0J04268g) of the same compound?
**A.** Downregulated

**Q.** And the “Regulation Status” value (gene CAGL0J04554g)?
**A.** Downregulated

**Q.** What about the “Regulation Status” value (gene CAGL0J04884g) of the same compound?
**A.** Downregulated

**Q.** What about the “Regulation Status” value (gene CAGL0J05302g) of the same compound?
**A.** Downregulated

**Q.** And the “Regulation Status” value (gene CAGL0J06380g)?
**A.** Downregulated

**Q.** And the “Regulation Status” value (gene CAGL0J06490g)?
**A.** Downregulated

**Q.** What about the “Regulation Status” value (gene CAGL0J06820g) of the same compound?
**A.** Downregulated

**Q.** What about the “Regulation Status” value (gene CAGL0J08316g) of the same compound?
**A.** Downregulated

**Q.** And the “Regulation Status” value (gene CAGL0J09680g)?
**A.** Downregulated

**Q.** What about the “Regulation Status” value (gene CAGL0J09790g) of the same compound?
**A.** Downregulated

**Q.** And the “Regulation Status” value (gene CAGL0J11484g DUG3)?
**A.** Downregulated

**Q.** And the “Regulation Status” value (gene CAGL0J11682g)?
**A.** Downregulated

**Q.** And the “Regulation Status” value (gene CAGL0K00110g AWP2)?
**A.** Downregulated

**Q.** What about the “Regulation Status” value (gene CAGL0K02409g) of the same compound?
**A.** Downregulated

**Q.** And the “Regulation Status” value (gene CAGL0K02893g)?
**A.** Downregulated

**Q.** What about the “Regulation Status” value (gene CAGL0K03663g) of the same compound?
**A.** Downregulated

**Q.** What about the “Regulation Status” value (gene CAGL0K04279g SCM4) of the same compound?
**A.** Downregulated

**Q.** What about the “Regulation Status” value (gene CAGL0K06677g MET8) of the same compound?
**A.** Downregulated

**Q.** What about the “Regulation Status” value (gene CAGL0K06853g) of the same compound?
**A.** Downregulated

**Q.** And the “Regulation Status” value (gene CAGL0K07315g)?
**A.** Downregulated

**Q.** And the “Regulation Status” value (gene CAGL0K07678g)?
**A.** Downregulated

**Q.** And the “Regulation Status” value (gene CAGL0K08184g CCP1)?
**A.** Downregulated

**Q.** What about the “Regulation Status” value (gene CAGL0K08668g MET28) of the same compound?
**A.** Downregulated

**Q.** What about the “Regulation Status” value (gene CAGL0K08800g ADI1) of the same compound?
**A.** Downregulated

**Q.** What about the “Regulation Status” value (gene CAGL0K09218g) of the same compound?
**A.** Downregulated

**Q.** And the “Regulation Status” value (gene CAGL0K10120g)?
**A.** Downregulated

**Q.** What about the “Regulation Status” value (gene CAGL0K10868g CTA1) of the same compound?
**A.** Downregulated

**Q.** What about the “Regulation Status” value (gene CAGL0K10956g) of the same compound?
**A.** Downregulated

**Q.** And the “Regulation Status” value (gene CAGL0K10978g)?
**A.** Downregulated

**Q.** What about the “Regulation Status” value (gene CAGL0K12100g) of the same compound?
**A.** Downregulated

**Q.** And the “Regulation Status” value (gene CAGL0K12958g)?
**A.** Downregulated

**Q.** What about the “Regulation Status” value (gene CAGL0L00429g) of the same compound?
**A.** Downregulated

**Q.** What about the “Regulation Status” value (gene CAGL0L00759g HIS1) of the same compound?
**A.** Downregulated

**Q.** What about the “Regulation Status” value (gene CAGL0L00803g) of the same compound?
**A.** Downregulated
